Experimental data published in the supplement of paper PMC6045584.
± gives the standard deviation of the averaged measurements.

Columns and labels:
NILOTINIB = compound: Cc1cn(-c2cc(NC(=O)c3ccc(C)c(Nc4nccc(-c5cccnc5)n4)c3)cc(C(F)(F)F)c2)cn1 [NILOTINIB]; test: surviving fraction relative to DMSO-only wells; higher = less growth inhibition; conditions: exposure time: 5 days
Summary of the method: (§1)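 Log-phase tumour cell lines, 250–500 cells per well in 384-well plates, received inhibitors at 0.5, 1, 5, 10, 50, 100, 500 and 1000 nM continuously for five days, starting 24 hours after seeding. Viability was quantified with CellTiter-Glo luminescence and normalised to the median of DMSO-only wells to give surviving fraction. Three screens were run per line, and a line stayed in only with replicate Pearson r >0.7 and median Z' >0.3.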

VORINOSTAT = compound: O=C(CCCCCCC(=O)Nc1ccccc1)NO [VORINOSTAT]; test: as above; conditions: exposure time: 5 days
Summary of the method: as §1

Row | Test System | surviving fraction (NILOTINIB; 0.5 nM) | surviving fraction (NILOTINIB; 1 nM) | surviving fraction (NILOTINIB; 5 nM) | surviving fraction (NILOTINIB; 10 nM) | surviving fraction (NILOTINIB; 50 nM) | surviving fraction (NILOTINIB; 100 nM) | surviving fraction (NILOTINIB; 500 nM) | surviving fraction (NILOTINIB; 1000 nM) | surviving fraction (VORINOSTAT; 0.5 nM) | surviving fraction (VORINOSTAT; 1 nM) | surviving fraction (VORINOSTAT; 5 nM) | surviving fraction (VORINOSTAT; 10 nM) | surviving fraction (VORINOSTAT; 50 nM) | surviving fraction (VORINOSTAT; 100 nM) | surviving fraction (VORINOSTAT; 500 nM) | surviving fraction (VORINOSTAT; 1000 nM)
1 | MDAMB436 BREAST | 0.905 ± 0.076 | 1 ± 0.088 | 1 ± 0.017 | 0.964 ± 0.057 | 0.82 ± 0.087 | 0.915 ± 0.033 | 0.904 ± 0.03 | 0.78 ± 0.051 | 0.83 ± 0.045 | 0.905 ± 0.045 | 0.854 ± 0.056 | 0.911 ± 0.086 | 0.937 ± 0.081 | 0.835 ± 0.055 | 0.766 ± 0.072 | 0.582 ± 0.066
2 | MDAMB453 BREAST | 1 ± 0.045 | 0.998 ± 0.097 | 1.03 ± 0.077 | 1.05 ± 0.088 | 0.91 ± 0.02 | 0.925 ± 0.016 | 0.895 ± 0.0087 | 0.874 ± 0.068 | 0.998 ± 0.032 | 1.01 ± 0.079 | 1.03 ± 0.062 | 1.05 ± 0.065 | 1.06 ± 0.038 | 1.06 ± 0.022 | 0.785 ± 0.036 | 0.244 ± 0.0089
3 | MDAMB468 BREAST | 0.908 ± 0.055 | 0.931 ± 0.043 | 0.935 ± 0.069 | 1.05 ± 0.024 | 0.927 ± 0.037 | 0.835 ± 0.0095 | 0.9353 ± 0.0015 | 0.927 ± 0.045 | 0.891 ± 0.052 | 0.951 ± 0.03 | 1 ± 0.044 | 0.978 ± 0.023 | 1.12 ± 0.061 | 1.133 ± 0.007 | 0.818 ± 0.036 | 0.469 ± 0.007
4 | MFM223 BREAST | 1.11 ± 0.085 | 1.15 ± 0.12 | 1.08 ± 0.058 | 1.08 ± 0.056 | 0.798 ± 0.048 | 0.931 ± 0.15 | 0.9 ± 0.11 | 0.912 ± 0.13 | 1.05 ± 0.16 | 1.09 ± 0.047 | 1.13 ± 0.034 | 1.04 ± 0.043 | 1.18 ± 0.028 | 1.08 ± 0.03 | 0.738 ± 0.086 | 0.361 ± 0.029
5 | MG63 BONE | 1.03 ± 0.04 | 1.04 ± 0.053 | 1.11 ± 0.042 | 1.13 ± 0.079 | 1.19 ± 0.043 | 1.23 ± 0.07 | 1.24 ± 0.047 | 1.28 ± 0.049 | 1.03 ± 0.021 | 0.98033 ± 0.00058 | 1.058 ± 0.0097 | 1.02 ± 0.038 | 1.081 ± 0.0029 | 1.121 ± 0.011 | 1.02 ± 0.019 | 0.8407 ± 0.0078
6 | MHM BONE | 1.01 ± 0.028 | 0.999 ± 0.05 | 1.09 ± 0.014 | 1.06 ± 0.028 | 1.11 ± 0.023 | 1.13 ± 0.025 | 1.135 ± 0.0021 | 1.19 ± 0.059 | 0.928 ± 0.025 | 0.9847 ± 0.0087 | 1.01 ± 0.028 | 0.981 ± 0.019 | 1.03 ± 0.011 | 1 ± 0.019 | 0.985 ± 0.013 | 0.843 ± 0.025
7 | NCIH441 LUNG | 1.08 ± 0.14 | 1.01 ± 0.024 | 1.11 ± 0.037 | 1.05 ± 0.043 | 0.986 ± 0.11 | 0.91 ± 0.17 | 0.874 ± 0.022 | 0.889 ± 0.064 | 1.12 ± 0.041 | 1.02 ± 0.089 | 1.06 ± 0.033 | 1.04 ± 0.038 | 1.14 ± 0.02 | 0.959 ± 0.086 | 0.939 ± 0.024 | 0.546 ± 0.045
8 | NOS1 BONE | 0.958 ± 0.048 | 1.11 ± 0.029 | 1.07 ± 0.093 | 1.21 ± 0.048 | 1.02 ± 0.045 | 0.849 ± 0.013 | 0.666 ± 0.019 | 0.606 ± 0.03 | 1.01 ± 0.05 | 0.982 ± 0.17 | 1.04 ± 0.021 | 1.03 ± 0.056 | 1.14 ± 0.15 | 1.07 ± 0.091 | 0.713 ± 0.089 | 0.284 ± 0.0091
9 | NY BONE | 1.03 ± 0.038 | 1.04 ± 0.018 | 1.08 ± 0.025 | 1.1 ± 0.049 | 1.12 ± 0.043 | 1.12 ± 0.03 | 1.01 ± 0.06 | 1.01 ± 0.045 | 0.9877 ± 0.004 | 0.918 ± 0.029 | 0.973 ± 0.023 | 0.98 ± 0.033 | 1.037 ± 0.0042 | 0.916 ± 0.019 | 0.701 ± 0.012 | 0.448 ± 0.016
10 | OS25HAL BONE | 1.02 ± 0.034 | 0.973 ± 0.028 | 1.01 ± 0.037 | 0.997 ± 0.061 | 1.03 ± 0.019 | 0.944 ± 0.055 | 0.85 ± 0.05 | 0.795 ± 0.055 | 0.987 ± 0.014 | 0.962 ± 0.015 | 0.991 ± 0.015 | 0.943 ± 0.033 | 1.046 ± 0.0047 | 1.03 ± 0.031 | 0.91 ± 0.011 | 0.498 ± 0.018
11 | OSHN BONE | 1.02 ± 0.017 | 1.01 ± 0.023 | 1.06 ± 0.025 | 1.01 ± 0.029 | 0.996 ± 0.034 | 1 ± 0.033 | 0.967 ± 0.02 | 0.96 ± 0.026 | 1.05 ± 0.026 | 1.04 ± 0.019 | 1.05 ± 0.022 | 1.028 ± 0.0032 | 1.08 ± 0.042 | 1.08 ± 0.032 | 1.1 ± 0.022 | 0.903 ± 0.022
12 | PCI30 HEADNECK | 0.952 ± 0.075 | 0.888 ± 0.045 | 1.04 ± 0.06 | 1.01 ± 0.05 | 0.921 ± 0.072 | 0.871 ± 0.056 | 1.08 ± 0.073 | 0.965 ± 0.063 | 0.958 ± 0.064 | 0.982 ± 0.079 | 0.933 ± 0.087 | 1.01 ± 0.039 | 1.07 ± 0.053 | 0.962 ± 0.066 | 0.88 ± 0.064 | 0.735 ± 0.059
13 | RDES SOFT TISSUE | 1.14 ± 0.097 | 1.25 ± 0.058 | 0.966 ± 0.14 | 1.14 ± 0.14 | 0.847 ± 0.16 | 0.78 ± 0.026 | 0.821 ± 0.2 | 0.944 ± 0.13 | 1.21 ± 0.099 | 1.19 ± 0.13 | 1.2 ± 0.029 | 1.1 ± 0.02 | 1.05 ± 0.073 | 1.11 ± 0.12 | 0.831 ± 0.13 | 1.12 ± 0.39
14 | S68 BREAST | 1 ± 0.3 | 1.1 ± 0.14 | 1.34 ± 0.29 | 1.06 ± 0.32 | 0.643 ± 0.041 | 0.846 ± 0.29 | 0.449 ± 0.18 | 0.544 ± 0.2 | 0.723 ± 0.22 | 0.82 ± 0.18 | 0.91 ± 0.38 | 0.998 ± 0.21 | 1.22 ± 0.28 | 1.07 ± 0.17 | 0.73 ± 0.19 | 0.384 ± 0.018
15 | SAOS2 BONE | 1.13 ± 0.064 | 1.09 ± 0.038 | 1.19 ± 0.035 | 1.21 ± 0.062 | 0.963 ± 0.072 | 0.912 ± 0.091 | 0.91 ± 0.016 | 0.905 ± 0.06 | 1.09 ± 0.027 | 1.07 ± 0.047 | 1.09 ± 0.07 | 0.997 ± 0.088 | 1.24 ± 0.021 | 1.06 ± 0.048 | 0.91 ± 0.053 | 0.73 ± 0.017
16 | SCC003 HEADNECK | 1.1 ± 0.048 | 1.03 ± 0.14 | 1.1 ± 0.037 | 1.04 ± 0.02 | 0.873 ± 0.38 | 1 ± 0.23 | 0.906 ± 0.24 | 0.995 ± 0.13 | 1 ± 0.086 | 1.01 ± 0.15 | 1.02 ± 0.1 | 1.01 ± 0.093 | 1.09 ± 0.067 | 1.12 ± 0.091 | 1.14 ± 0.12 | 0.847 ± 0.16
17 | SCC36 HEADNECK | 1.04 ± 0.035 | 1.02 ± 0.043 | 1.06 ± 0.15 | 1.09 ± 0.046 | 0.839 ± 0.048 | 0.849 ± 0.04 | 0.74 ± 0.052 | 0.79 ± 0.038 | 1.01 ± 0.084 | 0.977 ± 0.073 | 1.1 ± 0.024 | 1.06 ± 0.082 | 1.12 ± 0.1 | 1.14 ± 0.12 | 0.677 ± 0.038 | 0.589 ± 0.054
18 | SCC47 HEADNECK | 1.07 ± 0.05 | 1.06 ± 0.045 | 1.15 ± 0.064 | 1.08 ± 0.025 | 1.041 ± 0.0046 | 1.04 ± 0.074 | 0.95 ± 0.037 | 0.932 ± 0.019 | 1.03 ± 0.04 | 1.03 ± 0.077 | 1.12 ± 0.034 | 1.02 ± 0.016 | 1.05 ± 0.023 | 1.1 ± 0.044 | 1.02 ± 0.083 | 0.897 ± 0.028
19 | SCC90 HEADNECK | 0.993 ± 0.034 | 1 ± 0.02 | 1.07 ± 0.17 | 1.201 ± 0.0059 | 0.966 ± 0.13 | 0.764 ± 0.045 | 0.924 ± 0.069 | 0.867 ± 0.1 | 1.13 ± 0.3 | 0.999 ± 0.1 | 1.13 ± 0.19 | 1.03 ± 0.1 | 1 ± 0.046 | 0.89 ± 0.089 | 0.689 ± 0.012 | 0.547 ± 0.0096
